Test results from ChEMBL document CHEMBL1145432, “Antitumor activity, X-ray crystal structure, and DNA binding properties of thiocoraline A, a natural bisintercalating thiodepsipeptide” (2007).
Bridge positions count the residues as written; N and C are the ends. Square brackets hold non-standard residues; d marks the D form. Peptide text beside a SMILES is read from it. I, II: the chains in the order shown. * marks the point of attachment. Quinaldoyl(3-OH) = O=C(c1nc2ccccc2cc1O)*; NMeC = CN[C@@H](CS)C(=O)O

How the values were obtained:
Assay type in all cases: functional
[1] = system: LNCaP; experiment: Cytotoxicity against human LNCaP cells after 72 hrs by SRB assay
[2] = system: DU-145; experiment: Cytotoxicity against human DU145 cells after 72 hrs by SRB assay; conditions: DU-145, 72 h
[3] = Cytotoxicity against human IGROV cells after 72 hrs by SRB assay
[4] = system: SK-BR-3; experiment: Cytotoxicity against human SK-BR3 cells after 72 hrs by SRB assay; conditions: SK-BR-3, 72 h
[5] = system: SK-MEL-28; experiment: Cytotoxicity against human SK-MEL-28 cells after 72 hrs by SRB assay; conditions: SK-MEL-28, 72 h
[6] = system: A549; experiment: Cytotoxicity against human A549 cells after 72 hrs by SRB assay; conditions: A549, 72 h
[7] = system: K562; experiment: Cytotoxicity against human K562 cells after 72 hrs by SRB assay; conditions: K562, 72 h
[8] = system: PANC-1; experiment: Cytotoxicity against human PANC1 cells after 72 hrs by SRB assay; conditions: PANC-1, 72 h
[9] = system: HT-29; experiment: Cytotoxicity against human HT29 cells after 72 hrs by SRB assay; conditions: HT-29, 72 h
[10] = system: LoVo; experiment: Cytotoxicity against human LoVo cells after 72 hrs by SRB assay
[11] = system: LoVo; experiment: Cytotoxicity against doxorubicin resistant human LoVo cells after 72 hrs by SRB assay
[12] = system: HeLa; experiment: Cytotoxicity against human HeLa cells after 72 hrs by SRB assay
[13] = read-out: LC50 (the source's name)

CSC[C@H]1C(=O)SC[C@@H](NC(=O)c2nc3ccccc3cc2O)C(=O)NCC(=O)N(C)[C@H]2CSSC[C@@H](C(=O)N1C)N(C)C(=O)CNC(=O)[C@H](NC(=O)c1nc3ccccc3cc1O)CSC(=O)[C@H](CSC)N(C)C2=O [THIOCORALINE A] (I: {Quinaldoyl(3-OH)}-[dC]G[NMeC][NMeC](Me) / II: {Quinaldoyl(3-OH)}-[dC]G[NMeC][NMeC](Me); thioester I:1-II:C, I:C-II:1; disulfide I:3-II:3)
GI50 [1]: 3 nM | TGI [1]: 5 nM | CC50 [1, 13]: 14.2 nM | GI50 [2]: 1.9 nM | TGI [2]: 6.4 nM | CC50 [2, 13]: 1480 nM | GI50 [3]: 1.9 nM | TGI [3]: 11.1 nM | CC50 [3, 13]: 1260 nM | GI50 [4]: 2.2 nM | TGI [4]: 8.9 nM | CC50 [4, 13]: 30.8 nM | GI50 [5]: 3 nM | TGI [5]: 14 nM | CC50 [5, 13]: 50.3 nM | GI50 [6]: 4.8 nM | TGI [6]: 19.3 nM | CC50 [6, 13]: 95.6 nM | GI50 [7]: 1.3 nM | TGI [7]: 4.6 nM | CC50 [7, 13]: 9.2 nM | GI50 [8]: 2.5 nM | TGI [8]: 82.5 nM | CC50 [8, 13]: 378 nM | GI50 [9]: 3.9 nM | TGI [9]: 73.6 nM | CC50 [9, 13]: 6290 nM | GI50 [10]: 7.2 nM | TGI [10]: 263 nM | CC50 [10, 13]: 284 nM | GI50 [11]: 212 nM | TGI [11]: 2380 nM | GI50 [12]: 1.3 nM | TGI [12]: 4.7 nM | CC50 [12, 13]: 22.6 nM
